Data on one compound can be found in patent US12447156B2, “Treating progressive familial intrahepatic cholestasis (PFIC) with IBAT inhibitors” (ALBIREO AB, priority 2020, dated 2025).

A short description of the data set: Water content and water uptake of crystal modification 1 at different relative humidity. The class given is physicochemical.

As for `CCCCC1(CCCC)CN(c2ccccc2)c2cc(SC)c(OCC(=O)N[C@@H](C(=O)N[C@@H](CC)C(=O)O)c3ccc(O)cc3)cc2S(=O)(=O)N1` [crystal modification 1], for the setting “about 30% relative humidity, based on total crystal weight”, the “water content of crystal” value is on record as “about 3.5 % (w/w)”. Further, under “between about 30 and about 70% RH”, the hygroscopicity result is “relatively low hygroscopicity”. For the same compound, the “additional water taken up” value (humidity increased up to 95% RH, fully reversible) is listed as 1.5 % (w/w).
